From publication PMC2910156 (Journal of neurochemistry, 2010)

Biological target: α-synuclein (E46K α-syn) (Homo sapiens, UniProt P37840, E46K)
Test: Thioflavin T fibrillization assay with purified E46K α-syn
Format: biochemical

Question: Which IC50 does the source give for `O=c1cc(-c2ccccc2)oc2cc(O)c(O)c(O)c12` [Baicalein] here?
Answer: ~10 µM
